Laboratory results published in patent US20170058264A1, “FORMATION OF MULTICELLULAR TUMOROIDS AND USES THEREOF” (UNIVERSITY OF SOUTH FLORIDA, priority 2014, published 2017).

Assays:
Assay type in all cases: cell-based
[1] = tested on: BT474 tumoroids; assay: Lapatinib response of BT474 tumoroids in monoculture or co-culture, cell viability by PrestoBlue assay; settings: Homo sapiens, BT-474, 72 h, about 72 hours
Method: (§1) On day 2 after culturing, cells were treated with the indicated concentrations (μM) of Lapatinib for about 72 hours. Cell viability was measured by PrestoBlue® assay.
(§2) The sensitivity of tumoroids derived from monoculture or co-culture of BT474 and HCC1569 to Lapatinib was examined. Lapatinib is a dual small molecule tyrosine kinase inhibitor targeting EGFR and HER2. […] Similar results were obtained when established tumoroids were treated with Lapatinib.

[2] = tested on: HCC1569 tumoroids; assay: Lapatinib response of HCC1569 tumoroids in monoculture or co-culture, cell viability by PrestoBlue assay; settings: HCC1569 cultured in the presence of ECs and CAFs vs monoculture
Method: as §1, §2

[3] = target: BT474 co-cultured tumoroids; assay: Ki-67 expression by immunohistochemistry and tumoroid formation in Lapatinib treated BT474 tumoroids; settings: 72 hours
Method: Ki-67 can be used as a surrogate marker of clinical efficacy in cancer trials. Expression of Ki-67. Monoculture and Co-culture tumoroids were treated with increasing concentrations of Lapatinib (0-10 μM). Tumoroids were fixed and immunostained for […].

[4] = tested on: BT474 tumoroids; assay: VEGF, IL-6 and TGF-β1 in day 5 culture supernatants of BT474 tumoroids by ELISA; settings: co-cultured tumoroids; Lapatinib about 2.5 μM-5 μM; day 5 supernatants
Method: BT474 tumoroids were monocultured or co-cultured in the presence or absence of Lapatinib (2.5-10 μM) and the levels of VEGF, IL-6, and TGF-β1 in the day 5 culture supernatants were determined by ELISA. * p<0.05.
To identify and evaluate the biomarkers of clinical efficacy, both monoculture and co-culture tumoroids were treated with increasing concentrations of Lapatinib (about 0 to about 10 μM). Five days after culture, the supernatants of the culture were tested for levels of VEGF, IL-6, and TGF-β. […] BT474 tumoroids were mono-cultured or co-cultured in the presence or absence of Lapatinib (2.5-10 μM) and the levels of VEGF, IL-6, and TGF-β1 in the day 5 culture supernatants were determined by ELISA. * p<0.05.

[5] = tested on: BT474 tumoroids (SCTs and MCTs); assay: Quantibody Array (multiplexed sandwich ELISA) of factors in day 5 culture supernatants of BT474 SCTs and MCTs
Method: BT474 tumoroids (SCTs, blue bars and MCTs, red bars) were cultured in the presence or absence of Lapatinib (0.5-12.5 μM), as in FIGS. 9A-9B, and the levels of IL-6, IL-8, MCP-1 in the day 5 culture supernatants were determined by Sandwich ELISA (FIGS. 20-21). * p<0.05.
BT474 tumoroids (SCTs, blue bars and MCTs, red bars) were cultured in the presence or absence of Lapatinib (0.5-12.5 μM), as in FIGS. 9A-9B, and the levels of PDGF-BB, DKK-1, OPG in the day 5 culture supernatants were determined by Sandwich ELISA (FIGS. 20-21). * p<0.05.
BT474 tumoroids (SCTs, blue bars and MCTs, red bars) were cultured in the presence or absence of Lapatinib (0.5-12.5 μM), as in FIGS. 9A-9B, and the levels of MMP-3 in the day 5 culture supernatants were determined by Sandwich ELISA (FIGS. 20-21). * p<0.05.
Additionally, to characterize factors and molecules released in SCTs and MCTs culture, a human Quantibody Array (RayBiotech Inc.), which utilizes a multiplexed sandwich ELISA assay and enables detection of multiple proteins/factors simultaneously, was used. […] This list includes adhesion molecules (E-selectin, ICAM-1, P-Cadherin, VE-cadherin), \growth factors (aFGF, activin A, […] (AR), bFGF, bone morphogenic protein (BMP)-2, BMP-4, BMP-6, BMP-7, BMP-9, dickkopf-1 (DKK-1), IGF-1, osteoprotegerin (OPG), osteopontin (OPN), PDGF-BB, TGFβ1, TGFβ2, TGFβ3), chemokines (monocyte chemotactic protein 1 (MCP-1)), macrophage inflammatory protein (MIP)-1α, VCAM-1), cytokines (IL-1α, IL-1β, IL-6, IL-8, IL-11, IL-17, M-CSF), receptor activator of NFkB (RANK), osteoactivin, SDF-1α, TNF related activation induced cytokine (TRANCE)) and matrix metalloproteinases (MMPs), such as MMP-2, -3, -9, -13.
To determine whether any of these factors are expressed in SCTs and MCTs, we incubated QAH-BMA-1000 array with a pool of culture supernatants of BT474-SCTs and MCTs in quadruplets. Experiments were conducted using manufacturer's protocol. An appropriate positive control was used to normalize the signal intensity. […] These include, growth factors, such as PDGF-BB, OPG and DKK-1, chemokine such as MCP-1, IL-6 and IL-8, and protease MMP-3 (see e.g. FIGS. 23A-25.)
Lapatinib treated cultures were examined for factors that are found differentially expressed in MCTs, compared to SCTs.

[6] = tested on: BT-474 SCTs; assay: Lapatinib response of BT-474 SCTs cultured on Matrigel or FiSS, Presto Blue cell viability; settings: 3 d old SCTs; examined after 72 hrs
Method: Cells (3×10^3) were cultured on a layer of Matrigel coated plate in the presence of growth medium supplemented with 10% Matrigel. Three days after culture, cells were treated with indicated concentrations of Lapatinib and examined after 72 hrs. Spheroids were stained with calcein AM and examined by fluorescent microscope.
To benchmark FiSS-tumoroids against Matrigel-based 3D-culture for prediction of clinical efficacy, 3 d old BT-474 SCTs (cultured on Matrigel or FiSS) were treated with Lapatinib and examined tumoroid formation (FIGS. 26A-26D) and cell viability (FIGS. 27A-27B). Although Matrigel induced numerous smaller size tumoroids compared to FiSS tumoroids, their response to Lapatinib was similar as shown in FIGS. 27A-27B.

[7] = target: BT474 tumoroids; assay: High-content analysis (Operetta) of Ki-67 immunostaining in BT474 tumoroids; settings: different concentrations of Lapatinib; about 72 hrs
Method: Quantification of immunostaining was completed using Operetta.
To optimize quantification of high content imaging for BT474 tumoroids were incubated for 72 h and then imaged on the Operetta HCI System with a 20× objective. Single plane z-stacked images of BT474 tumoroids on scaffolds were stained with DAPI and images were acquired using the Operetta high content imaging system from Perkin Elmer. Representative fields were selected at 20× magnification and z-stacks of these fields were acquired with an interval of 2 um between each z-plane. Z-stacks were analyzed using the image processing software ImageJ (NIH). […] Using HCA we have quantified changes in Ki-67 expression in BT474 tumoroids treated with different concentrations of Lapatinib.

[8] = MCTs, Lapatinib 0.5-12.5 μM, dose dependent

With `CS(=O)(=O)CCNCc1ccc(-c2ccc3ncnc(Nc4ccc(OCc5cccc(F)c5)c(Cl)c4)c3c2)o1` [Lapatinib] the IC50 ([1]; BT474 cells cultured on 2D or FiSS (monoculture)) was under 2.5 µM, the IC50 ([1]; MCTs, in the presence of ECs and CAFs) was over 10 µM and the “resistance to Lapatinib” value [2] was “increase in resistance”. For the same molecule, the Ki-67 staining ([3]; Lapatinib 2.5 μM) was “completely abrogated”, the tumoroid formation ([3]; Lapatinib 2.5 mM as printed) was “inhibited tumoroid formation” and the “secretion of IL-6” value [4] was “significantly decreased”. The “secretion of TGF-β” value [4] was “significantly decreased”, the “secretion of VEGF” value [4] was “significantly decreased” and the “reduction of MCP-1 expression” value ([5]; MCTs, 12.5 uM Lapatinib) was at most 50%. The DKK-1 expression ([5]; MCTs, Lapatinib 0.5-12.5 μM) was “reduced significantly”, the MMP-3 expression ([5]; MCTs, Lapatinib 0.5-12.5 μM) was “reduced only marginally” and the “IL-6 in culture supernatants” value [5, 8] was “reduced to basal level”. The “IL-8 in culture supernatants” value [5, 8] was “reduced to basal level”, the PDGF-BB expression ([5]; SCTs and MCTs, Lapatinib 0.5-12.5 μM) was “did not alter” and the MCP-1 expression ([5]; SCTs, Lapatinib 0.5-12.5 μM) was “abolished MCP-1 expression completely”. The “response to Lapatinib (cell viability), Matrigel vs FiSS tumoroids” value [6] was “similar” and the “Ki-67 expression (relative intensity, HCA)” value [7] was “dose-dependent Ki-67 expression”.
